Test results as given in US11814371B2, “Heterocyclic compound” (MEDSHINE DISCOVERY INC., priority 2020, dated 2023).
Where two headings read alike, the source gives them in different places.

Experiments:
[1] = target: T1, recombinant human plasma kallikrein (Human PKal) (Homo sapiens, UniProt P03952); assay: Inhibitory effect of test compounds on plasma kallikrein (PKal), fluorogenic substrate Z-FR-AMC; format: biochemical; settings: 10 µM Z-FR-AMC, 10 min pre-incubation
T1 construct: Gly20-Ala638 derived from NS0- with a 60-His appendage at the C-terminus; His tag ('60-His' [sic]) (C); purchased R&D Systems 2497-SE; host or cells: mouse myeloma cell line NS0
T1 sequence (P03952 20-638): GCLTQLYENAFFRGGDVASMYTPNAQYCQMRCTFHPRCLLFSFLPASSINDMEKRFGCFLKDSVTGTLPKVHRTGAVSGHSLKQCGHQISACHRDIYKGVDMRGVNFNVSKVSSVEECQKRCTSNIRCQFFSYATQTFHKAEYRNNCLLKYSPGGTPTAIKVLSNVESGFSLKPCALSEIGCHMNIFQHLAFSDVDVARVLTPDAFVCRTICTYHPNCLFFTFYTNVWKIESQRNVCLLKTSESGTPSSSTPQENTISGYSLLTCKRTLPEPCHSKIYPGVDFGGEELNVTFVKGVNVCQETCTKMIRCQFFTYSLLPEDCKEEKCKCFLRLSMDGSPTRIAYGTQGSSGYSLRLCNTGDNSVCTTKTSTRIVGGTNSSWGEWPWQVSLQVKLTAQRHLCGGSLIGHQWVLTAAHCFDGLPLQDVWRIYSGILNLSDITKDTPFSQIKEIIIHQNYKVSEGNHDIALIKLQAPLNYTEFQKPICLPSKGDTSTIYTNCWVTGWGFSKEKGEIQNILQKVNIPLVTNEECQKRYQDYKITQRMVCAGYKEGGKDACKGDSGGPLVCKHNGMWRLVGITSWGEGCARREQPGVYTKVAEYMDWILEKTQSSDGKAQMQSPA
Procedure: 1. PKal reaction buffer: 25 mM Tris-HCl (trometamol-HCl), pH 8.0, 100 mM NaCl, […], 0.01 % Brij35 (polyoxyethylene lauryl ether), and 1 % DMSO (final concentration).
2. Enzyme: PKal (R&D Systems Cat# 2497-SE), recombinant human plasma kallikrein expressed in a mouse myeloma cell line, Gly20-Ala638 derived from NS0- with a 60-His appendage at the C-terminus, MW=70 kDa. Activation of the enzyme: (1) rhPKal was diluted to 200 µg/mL activation buffer (100 mM Tris, 10 mM CaCl2, 150 mM NaCl, pH 7.5 (TCN)); (2) thermolysin was diluted to 20 µg/mL activation buffer; (3) rhPKal (200 µg/mL) and thermolysin (20 µg/mL) were mixed in equal volumes; (4) the mixture was incubated at 37° C. for 30 min; (5) then the reactions was stopped with 50 µM EDTA (ethylenediaminetetraacetic acid).
3. Substrate (Enzo Cat# P-139): 10 µM Z-FR-AMC (AMC: 7-amino-4-methylcoumarin).
4. Detection: EnVision (PE), Ex/Em 355/460 nm.
5. Reaction process: (1) The specified enzymes and substrates were prepared in freshly prepared activation buffer; (2) the enzyme solution was injected into the reaction hole; (3) the DMSO solution of the test compound was injected into the reaction mixture, and controlled within the nanoliter range using acoustic technology (Echo 550, LabCyte Inc. Sunnyvale, CA); (4) after 10 min of pre-incubation, the substrate solution was injected into the reaction hole to start the reaction; (5) the activity of the enzyme could be indicated by the increase of the fluorescence signal of the fluorescent labeled peptide substrate, which was monitored every 5 min and lasted for 120 min at room temperature; (6) data analysis: the slope* (fluorescence signal/time) of the straight line was measured, then the slope could be calculated by excel and the curve could be fitted by Prism software.

[2] = Pharmacokinetic test in rats after intravenous and intragastric administration (plasma, LC-MS/MS); format: in vivo; settings: male, SD, rat; for bioavailability: read-out: Bioavailability F; for AUC(0-inf): read-out: Curve area (o-inf) AUC0-inf; for AUC(0-t): read-out: Curve area (o-t) AUC0-last; for half-life: read-out: Half-life T½ (converted); for Tmax: read-out: Peak time Tmax; for Cmax: read-out: Plasma drug concentration Cmax; for Vd: read-out: Apparent volume of distribution Vdss; for clearance: read-out: Clearance rate Cl
Procedure: Male SD rats were used as test animals, and LC-MS/MS method was used to determine the drug concentrations in plasma of rats at different times after intravenous and intragastric administration of test compounds. The pharmacokinetic behaviors of the compounds in rats were studied and the pharmacokinetic characteristics were evaluated.
2.2 Test animals: 28 healthy adult male SD rats were divided into 14 groups with 2 rats in each group. Animals were purchased from Beijing Vital River Laboratory Animal Technology Co., Ltd.
(§1) An appropriate amount of sample was weighed, and an appropriate amount of DMSO, polyoxyethylene castor oil and sterile water for injection were added in sequence according to the volume ratio of 10:10:80, then the mixture was stirred and sonicated to reach a clear state of 0.5 mg/mL for intravenous administration.
as §1, with “clear or suspension” for “clear”, “0.4” for “0.5”, “intragastric” for “intravenous”
as §1, with “3” for “0.5”
2.4 Administration: 28 male SD rats were divided into 14 groups, after fasting for one night, the intravenous administration group was administered with an administration volume of 2 mL/kg and a dose of 1 mg/kg; the intragastric administration group 1 was administered with an administration volume of 5 mL/kg and a dose of 2 mg/kg. The intragastric administration group 2 was administered with an administration volume of 10 mL/kg and a dose of 30 mg/kg.
After the compound was administered intravenously to male SD rats, 40 µL of blood was collected at 0.0833, 0.25, 0.5, 1, 2, 4, 8 and 24 hours, respectively, and placed in tubes containing 2 µL of EDTA-K2. After the compound was administered in the intragastric administration group, 40 µL of blood was collected at 0.25, 0.5, 1, 2, 4, 6, 10 and 24 hours, respectively, and placed in tubes containing 2 µL of EDTA-K2. The tubes were centrifuged at 4000 rpm for 15 minutes to separate the plasma, and stored at -60° C. Animals were allowed to eat 2 hours after administration.
LC-MS/MS method was used to determine the content of the test compounds in the plasma of rats after intravenous and intragastric administration. The linear range of the method was 2.00 - 6000 nmol/L; plasma samples were treated with acetonitrile to precipitate protein, and then analyzed.

[3] = po, intragastric administration (group 1), nominal 2 mg/kg (actual dose in c2)
[4] = po, intragastric administration (group 2), nominal 30 mg/kg (actual dose in c2)
[5] = intravenous administration, nominal 1 mg/kg (actual dose in c2)

Row | Structure (SMILES) | IC50 [1] | bioavailability [2, 3] | AUC(0-inf) [2, 3] | AUC(0-t) [2, 3] | half-life [2, 3] | Tmax [2, 3] | Cmax [2, 3] | bioavailability [2, 4] | AUC(0-inf) [2, 4] | AUC(0-t) [2, 4] | half-life [2, 4] | Tmax [2, 4] | Cmax [2, 4] | Vd [2, 5] | clearance [2, 5] | AUC(0-inf) [2, 5] | AUC(0-t) [2, 5] | half-life [2, 5]
1 | COc1ccc(F)c(CNC(=O)c2cn(Cc3ccc(Cn4cc(F)ccc4=O)c(F)c3)nc2C2COC2)c1F [Compound 8] | 465 pM | 11.2% | 0.591 µM·h | 0.584 µM·h | 94.2 min | 15 min | 680 nM | 54% | 42.5 µM·h | 42.4 µM·h | 115 min | 15 min | 18600 nM | 0.188 L/kg | 12.2 mL/min/kg | 2.62 µM·h | 2.62 µM·h | 23.5 min
2 | COc1ccc(F)c(CNC(=O)c2cn(Cc3ccc(Cn4cc(F)ccc4=O)cc3)nc2C2COC2)c1F [Compound 1] | 139 pM | 15.3% | 1.34 µM·h | 1.33 µM·h | 93.6 min | 30 min | 1140 nM | – | – | – | – | – | – | 0.202 L/kg | 7.09 mL/min/kg | 4.38 µM·h | 4.35 µM·h | 37.4 min
